According to patent US8841325B2, “Immunomodulatory compounds for the restoration of vitamin D sensitivity in vitamin D resistant tumor cells” (Celgene Corporation, priority 2009, dated 2014):

Columns and labels:
breast cancer cell lines = settings: literature (Colston et al.); cited from earlier work
HBL-100 cells = test: Cell viability by neutral red assay, HBL-100; assay type: cell-based; settings: up to 6 days
Protocol: (§1) After 6 days treatment, cells were seeded into 24 well plates at a density of 1×10^4 cells/wells. After 24 h, cells were treated with reagents or vehicle for up to six days. At the end of the incubation period, medium was removed and cells were incubated with neutral red solution (40 μg/ml in phenol red and serum free DMEM) for 2 h at 37° C. After removal of the neutral red solution, wells were rinsed once with 1 ml 4% formal saline containing 0.5% CaCl2. Plates were inverted on paper towel to drain and 200 μl of elution fluid (1% acetic acid in 50% ethanol) was added. Following incubation at room temperature for 30 min with gentle shaking, absorbance at 550 nm was determined
In order to validate the previous results obtained in MDA-MB-231 cells, two other vitamin D resistant cell lines MCF-7/VD^R and HBL-100 cells, were investigated. First the effect of lenalidomide on these cells lines were investigated. To this end, cells were treated for up to 6 days with different concentrations of lenalidomide (0 μM up to 10 μM). Cell viability was measured by neutal red dye assay (FIG. 13).
(§2) More particularly, FIG. 13 illustrates the effects of lenalidomide treatment on MCF-7/VDR and HBL-100 viability. MCF-7/VDR and HBL-100 cells were treated for up to 6 days with different concentrations of lenalidomide (0 μM up to 10 μM). Cell viability was measured by neutral red dye assay. Results are mean of three independent experiments (each made in quadruplicate).
Cell viability was measured by neutral red dye assay (FIG. 14).
as §2, with “14” for “13”, “lenalidomide/1, 25-D3 co-treatment” for “lenalidomide treatment”, “(0.01” for “(0”, “1 μM) alone or in combination with different concentrations of 1, 25-D3 (0 for up to 1000 nM).” for “10 μM).”
To accomplish this, cells were treated for up to 6 days with different concentrations of a BCL-2 inhibitor, ABT-263 ([…]). Non-treated cells were used as a control. After 6 days of treatment, cell viability was measured by neutral red assay (FIG. 16). In the three cell lines, BCL-2 inhibition leads to cell death. The IC50 is almost equivalent in all cell lines (1 μM+/−0.2 μM).
More particularly, FIG. 16 illustrates the effects of BCL-2 inhibition on MCF-7VD^R and HBL-100 viability. MDA-MB-231, MCF-7/VD^R and HBL-100 cells were treated for up to 6 days with different concentrations of ABT-263 (0.2 up to 20 μM). Non-treated cells were used as a control. After 6 days of treatment, cell viability was measured by neutral red assay. Results are mean of three independent experiments (each made in quadruplicate).

MCF-12A cells [1] = test: Cell viability by neutral red assay, MCF-12A; assay type: cell-based
Protocol: Cells were seeded in 24 wells plates at a density of 10^4 cells per well and allowed to adhere for 24 hours. […] The drug was renewed every 2 days. Cell viability was then determined by neutral red assay, measuring absorbance at 550 nm.
as §1

MCF-12A cells [2] = test: Cell growth by Sulphorhodamine B (SRB) assay, MCF-12A; assay type: cell-based; settings: for effect on cell growth: single agent, Thalidomide 0.01-100 μM, CC-4047 and lenalidomide 0.001-10 μM, FIG. 6B
Protocol: (§3) Cells were seeded in 24 wells plates at a density of 10^4 cells per well and allowed to adhere for 24 hours. […] Each treatment was carried out for up to 7 days, but renewed every 2 days. Cell growth was then determined by Sulphorhodamine B (SRB) assay, measuring absorbance at 550 nm.
(§4) After 6 days treatment, cells were seeded in 24 well plates at a density of 1×10^4 cells/well. After 24 h cells were treated with reagents or vehicle for up to six days. Cells were treated for up to 6 days with log doses of Thalidomide (0.1 μM up to 100 μM), pomalidomide and lenalidomide (0 μM up to 10 μM). At the end of each experiment, cells were fixed to the bottom of the well by addition of ice-cold 50% w/v trichloroacetic acid (TCA) to give a final concentration of 10% TCA. Plates were incubated at 4° C. for 30 minutes and then washed with distilled water. Plates were allowed to air-dry at room temperature before staining with 0.4% w/v SRB in 1% v/v acetic acid and incubated for 15 minutes on a shaker. The plates were then extensively washed with 1% acetic acid to remove unbound dye and were again allowed to air-dry at room temperature. Incorporated dye was solubilised with 200 μl […] Tris base. 100 μl aliquots were transferred to a 96 well plate and absorbance at 550 nm was determined

MCF-7 cells = test: Cell growth by Sulphorhodamine B (SRB) assay, MCF-7; assay type: cell-based; settings: for effect on cell growth: single agent, Thalidomide 0.01-100 μM, CC-4047 and lenalidomide 0.001-10 μM, FIG. 6B
Protocol: as §3, §4

MCF-7/VD^R cells [3] = test: Cell viability by neutral red assay, MCF-7/VD^R; assay type: cell-based; settings: up to 6 days
Text: (§5) Non-treated cells were used as a control.
as §5

MDA-MB-231 cells = test: Western blot of key signalling proteins (AKT, ERK1/2, VDR); assay type: cell-based; settings: 1 μM lenalidomide co-treatment with 100 nM 1,25-D3, 6 days
Protocol: More particularly, FIG. 11 illustrates the effects of co-treatment lenalidomide/1, 25-D3 on expression of key signalling proteins in MDA-MB-231 cells. […] Cells were also treated with 0.1% DMSO as a control. Whole proteins were extracted and probed for total AKT (T-AKT), phosphor-AKT (P-AKT), total ERK1/2 (T-ERK1/2), phospho-ERK1/2 (P-ERK1/2), phosphor-p38 and total p38, VDR and b-actin as a house-keeping protein. Representative blots for the three experiments are shown.

MCF-7/VD^R cells [4] = test: BCL-2 expression by immunoblotting, MCF-7/VD^R; assay type: cell-based; settings: 1 μM lenalidomide and 100 nM 1,25-D3 alone or in combination, 6 days, FIG. 15
Protocol: Cells were also treated with 0.1% DMSO as a control. Whole cells extracts were prepared and analysed by immuoblotting BCL-2 antibody. β-actin was used as a loading control.
Cells were also treated with 0.1% DMSO a control. Whole proteins were extracted and probes for BCL-2. β-actin was used as a loading control.

[5] = lenalidomide 0.01-1 μM alone or in combination with 1,25-D3 0-1000 nM, FIG. 14, p>0.05
[6] = 100 nM 1,25-D3 alone, up to 6 days, FIG. 7B
[7] = 1,25 D3 alone, read-out: dose giving IC50 inhibition
[8] = lenalidomide 0 μM up to 10 μM, FIG. 13, p>0.05
[9] = up to 6 days, listed as lenalidomide

SMILES	IC50 values (breast cancer cell lines)	differences in viability (HBL-100 cells; [5])	inhibition of viability (MCF-12A cells [1]; 100 nM 1,25-D3 alone, up to 6 days, FIG. 7A)	sensitivity of cell viability to vitamin D agent treatment (MCF-12A cells [1]; 1,25 D3 0-100 nM, 7 days, FIG. 1)	inhibition of growth (MCF-12A cells [2]; [6])	IC50 (MCF-12A cells [2]; [7])	inhibition of growth (MCF-7 cells; [6])	IC50 (MCF-7 cells; [7])	differences in viability (HBL-100 cells; [8])	differences in viability (MCF-7/VD^R cells [3]; [8])	differences in viability (MCF-7/VD^R cells [3]; [5])	AKT and ERK1/2 activation and VDR protein expression (MDA-MB-231 cells)	effect on cell viability (MCF-12A cells [1]; single agent, up to 6 days, Thalidomide 0.01-100 μM, CC-4047 and lenalidomide 0.001-10 μM, FIG. 6A)	effect on cell growth (MCF-12A cells [2]; up to 6 days)	effect on cell growth (MCF-12A cells [2]; [9])	effect on cell growth (MCF-7 cells; up to 6 days)	effect on cell growth (MCF-7 cells; [9])	effects on BCL-2 expression (MCF-7/VD^R cells [4])
C=C1/C(=C\C=C2/CCC[C@]3(C)[C@@H]([C@H](C)CCCC(C)(C)O)CC[C@@H]23)C[C@@H](O)C[C@@H]1O [1,25-D3, 1α,25-dihydroxyvitamin D3]	in the nM region	No significant differences	35%	showed sensitivity	55%	100 nM	30%	100 nM										
Nc1cccc2c1CN(C1CCC(=O)NC1=O)C2=O (stereo not shown) [Lenalidomide, 1-oxo-2-(2,6-dioxopiperidin-3-yl)-4-aminoisoindoline]		No significant differences							No significant differences	No significant differences	No significant differences	No Effect	do not Affect	do not Affect	no effect	do not Affect	no effect	no effects
